Experimental data taken from ChEMBL document CHEMBL6074674, “Development of Novel Silicon-Based Hydrophobic Tags (SiHyT) for Targeted Proteins Degradation” (J Med Chem, 2024).
The source made the active and inactive calls. The calls are words filed in the database; no cut-off is given here.

Assays:
HCC827 [1] = assay: Antiproliferative activity against human HCC827 cells assessed as decrease in cell survival measured after 72 hrs by CCK-8 assay; assay type: functional, cell-based; details: HCC827, 72 h
[2] = tested on: E3 ubiquitin-protein ligase RNF149/Epidermal growth factor receptor (Homo sapiens), P00533+Q8NC42 [UNDEFINED MUTATION]; assay: SiHyT-mediated degrader activity at RNF149/EGFR mutant in human HCC827 cells assessed as induction of EGFR degradation at 1 uM cells incubated in serum-free media for 8 hrs followed by incubation with compound for 24 hrs by western blot analysis; assay type: cell-based
[3] = tested on: E3 ubiquitin-protein ligase RNF149/Epidermal growth factor receptor (Homo sapiens), P00533+Q8NC42 [UNDEFINED MUTATION]; assay: SiHyT-mediated degrader activity at RNF149/EGFR mutant in human HCC827 cels assessed as induction of EGFR degradation at 0.1 uM cells incubated in serum-free media for 8 hrs followed by incubation with compound for 24 hrs by western blot analysis; assay type: cell-based
MOLM-13 [4] = assay: (§1) SiHyT-mediated degrader activity at RNF149/BTK in human MOLM-13 cells assessed as induction of BTK degradation incubated for 24 hrs by western blot analysis; assay type: cell-based
[5] = as §1; assay type: cell-based; details: MOLM-13, 24 h
MOLM-13 [6] = assay: SiHyT-mediated degrader activity at RNF149/BTK in human MOLM-13 cells assessed as induction of BTK degradation at 2.5 uM pretreated with proteasome inhibitor, MG-132 for 4 hrs followed by incubation with compound for 24 hrs by western blot analysis; assay type: cell-based
MOLM-13 [7] = assay: SiHyT-mediated degrader activity at RNF149/BTK in human MOLM-13 cells assessed as increase in BTK ubiquitination pretreated with MG132 followed by incubation with compound for 9 hrs by immunoprecipitation based western blot analysis; assay type: cell-based
MOLM-13 [8] = assay: SiHyT-mediated degrader activity at RNF149/BTK in human MOLM-13 cells assessed as induction of BTK degradation at 2.5 uM incubated for 3 to 24 hrs by western blot analysis; assay type: cell-based; details: time 3-24 hrs
MOLM-13 [9] = assay: SiHyT-mediated degrader activity at RNF149/BTK in human MOLM-13 cells assessed as reduction in half life of BTK at 2.5 uM incubated for 6 to 24 hrs in presence of protein synthesis inhibitor, CHX by western blot analysis; assay type: cell-based; details: time 6-24 hrs
MOLM-13 [10] = assay: SiHyT-mediated degrader activity at RNF149/BTK in human MOLM-13 cells assessed as increase in BTK degradation by measuring decrease in BTK expression incubated for 12 hrs by proteomics analysis; assay type: cell-based
MOLM-13 [11] = assay: SiHyT-mediated degrader activity at RNF149/BTK in human MOLM-13 cells assessed as induction of BTK degradation at 2.5 uM pretreated with E1 ligase inhibitor, PYR-41 for 4 hrs followed by incubation with compound for 24 hrs by western blot analysis; assay type: cell-based
[12] = Half life of the compound in human liver microsomes at 1 uM in presence of NADPH by LC-MS/MS analysis; assay type: ADME, Microsome
[13] = Intrinsic clearance of the compound in human liver microsomes at 1 uM in presence of NADPH by LC-MS/MS analysis; assay type: ADME, Microsome; details: read-out: CLH
[14] = Half life of the compound in mouse liver microsomes at 1 uM in presence of NADPH by LC-MS/MS analysis; assay type: ADME, Microsome
[15] = Intrinsic clearance of the compound in mouse liver microsomes at 1 uM in presence of NADPH by LC-MS/MS analysis; assay type: ADME, Microsome; details: read-out: CLH
Kasumi 1 [16] = assay: SiHyT-mediated degrader activity at RNF149/PDL1 in human Kasumi 1 cells assessed as induction of PDL1 degradation at 1 uM pretreated with E1 ligase inhibitor, PYR-41 for 4 hrs followed by incubation with compound for 24 hrs by western blot analysis; assay type: cell-based
[17] = (§2) SiHyT-mediated degrader activity at RNF149/PDL1 in human Kasumi 1 cells assessed as induction of PDL1 degradation incubated for 24 hrs by western blot analysis; assay type: cell-based; details: Kasumi 1, 24 h
Kasumi 1 [18] = assay: as §2; assay type: cell-based
Kasumi 1 [19] = assay: SiHyT-mediated degrader activity at RNF149/PDL1 in human Kasumi 1 cells assessed as induction of PDL1 degradation at 1 uM pretreated with proteasome inhibitor, MG-132 for 4 hrs followed by incubation with compound for 24 hrs by western blot analysis; assay type: cell-based
Kasumi 1 [20] = assay: SiHyT-mediated degrader activity at RNF149/PDL1 in human Kasumi 1 cells assessed as induction of PDL1 degradation at 1 uM incubated for 3 to 24 hrs by western blot analysis; assay type: cell-based; details: time 3-24 hrs
Kasumi 1 [21] = assay: SiHyT-mediated degrader activity at RNF149/PDL1 in human Kasumi 1 cells assessed as reduction in half life of PDL1 at 1 uM incubated for 6 to 24 hrs in presence of protein synthesis inhibitor, CHX by western blot analysis; assay type: cell-based; details: time 6-24 hrs
Kasumi 1 [22] = assay: SiHyT-mediated degrader activity at RNF149/PDL1 in human Kasumi 1 cells assessed as increase in PDL1 ubiquitination pretreated with MG132 followed by incubation with compound for 9 hrs by immunoprecipitation based western blot analysis; assay type: cell-based
Kasumi 1 [23] = assay: SiHyT-mediated degrader activity at RNF149/PDL1 in human Kasumi 1 cells assessed as increase in PDL1 degradation by measuring decrease in PDL1 expression incubated for 12 hrs by proteomics analysis; assay type: cell-based
HCC827 [24] = assay: Induction of cell cycle arrest in human HCC827 cells assessed as increase in cell accumulation at G1 phase at 0.01 to 0.1 uM incubated for 24 hrs by propidium iodide staining based flow cytometry; assay type: functional; details: dose 0.01-0.1 µM
PC-9 [25] = assay: Induction of cell cycle arrest in human PC-9 cells assessed as increase in cell accumulation at G1 phase at 0.01 to 0.1 uM incubated for 24 hrs by propidium iodide staining based flow cytometry; assay type: functional; details: dose 0.01-0.1 µM
PC-9 [26] = assay: Antiproliferative activity against human PC-9 cells assessed as decrease in cell survival measured after 72 hrs by CCK-8 assay; assay type: functional, cell-based; details: PC-9, 72 h

E3 ubiquitin-protein ligase RNF149/Epidermal growth factor receptor (Homo sapiens), P00533+Q8NC42 [UNDEFINED MUTATION], sequence (P00533 whole entry, looked up, change not shown): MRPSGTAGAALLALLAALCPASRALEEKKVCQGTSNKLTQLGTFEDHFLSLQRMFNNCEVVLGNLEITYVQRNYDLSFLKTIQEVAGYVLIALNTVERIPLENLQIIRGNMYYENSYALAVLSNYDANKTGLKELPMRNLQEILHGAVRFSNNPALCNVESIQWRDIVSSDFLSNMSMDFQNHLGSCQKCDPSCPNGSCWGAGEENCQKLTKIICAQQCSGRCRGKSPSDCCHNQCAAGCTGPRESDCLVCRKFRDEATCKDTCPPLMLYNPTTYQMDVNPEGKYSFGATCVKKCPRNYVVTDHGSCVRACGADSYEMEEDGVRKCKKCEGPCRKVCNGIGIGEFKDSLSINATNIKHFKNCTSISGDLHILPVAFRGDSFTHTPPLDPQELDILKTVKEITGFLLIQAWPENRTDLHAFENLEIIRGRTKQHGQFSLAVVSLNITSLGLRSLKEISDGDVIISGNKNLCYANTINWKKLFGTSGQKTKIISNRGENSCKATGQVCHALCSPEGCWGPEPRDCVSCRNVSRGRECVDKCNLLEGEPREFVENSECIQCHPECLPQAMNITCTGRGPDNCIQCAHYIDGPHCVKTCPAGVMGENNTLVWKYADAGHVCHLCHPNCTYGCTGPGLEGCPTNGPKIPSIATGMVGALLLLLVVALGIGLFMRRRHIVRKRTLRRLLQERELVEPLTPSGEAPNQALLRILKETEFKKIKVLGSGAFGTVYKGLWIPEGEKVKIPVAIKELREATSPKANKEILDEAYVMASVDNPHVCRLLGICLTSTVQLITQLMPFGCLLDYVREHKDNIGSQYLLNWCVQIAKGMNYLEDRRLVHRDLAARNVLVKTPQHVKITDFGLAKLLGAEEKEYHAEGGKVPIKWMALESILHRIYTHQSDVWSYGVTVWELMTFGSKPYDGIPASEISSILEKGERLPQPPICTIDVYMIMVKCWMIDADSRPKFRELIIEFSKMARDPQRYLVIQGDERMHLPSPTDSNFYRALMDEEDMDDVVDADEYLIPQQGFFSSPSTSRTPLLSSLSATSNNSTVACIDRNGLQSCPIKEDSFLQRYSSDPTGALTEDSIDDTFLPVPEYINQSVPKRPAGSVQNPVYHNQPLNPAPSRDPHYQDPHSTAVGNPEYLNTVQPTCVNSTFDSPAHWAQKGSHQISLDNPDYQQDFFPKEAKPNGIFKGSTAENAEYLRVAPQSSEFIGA
E3 ubiquitin-protein ligase RNF149/Epidermal growth factor receptor (Homo sapiens), P00533+Q8NC42 [UNDEFINED MUTATION], sequence (Q8NC42 whole entry, looked up, change not shown): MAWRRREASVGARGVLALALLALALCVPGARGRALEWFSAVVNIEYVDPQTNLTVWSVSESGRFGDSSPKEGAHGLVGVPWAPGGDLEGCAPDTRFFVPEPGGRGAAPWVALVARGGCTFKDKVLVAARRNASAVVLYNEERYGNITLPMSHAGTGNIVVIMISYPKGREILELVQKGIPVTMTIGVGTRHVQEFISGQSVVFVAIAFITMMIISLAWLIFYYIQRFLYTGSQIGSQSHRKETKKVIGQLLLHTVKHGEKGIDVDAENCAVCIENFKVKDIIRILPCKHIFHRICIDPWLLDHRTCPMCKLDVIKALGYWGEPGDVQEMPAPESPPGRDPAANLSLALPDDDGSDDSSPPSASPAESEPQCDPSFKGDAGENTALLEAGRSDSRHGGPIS

SMILES | Activity [2] | Activity [3] | IC50 (HCC827 [1]) | also measured
COc1cc2ncnc(Nc3ccc(F)c(Cl)c3)c2cc1OCCCCCCCO[Si](c1ccccc1)(c1ccccc1)C(C)(C)C | 0% | 0% | > 10000 nM | –
CC(C)(C)[Si](OCCn1cc(CCC(=O)N2CCC[C@@H](n3nc(-c4ccc(Oc5ccccc5)cc4)c4c(N)ncnc43)C2)nn1)(c1ccccc1)c1ccccc1 | – | – | – | Activity (MOLM-13 [4]): Active; DC50 [5]: 2780 nM; Activity (MOLM-13 [6]): inactive; Activity (MOLM-13 [7]): Active; Activity (MOLM-13 [8]): Time-dependent-effect; Activity (MOLM-13 [9]): Active; Activity (MOLM-13 [10]): Active; Activity (MOLM-13 [11]): inactive
COc1cc2ncnc(Nc3ccc(F)c(Cl)c3)c2cc1OCCCN1CCN(CCO[Si](c2ccccc2)(c2ccccc2)C(C)(C)C)CC1 | 16.8% | 0% | > 10000 nM | –
COc1cc2ncnc(Nc3ccc(F)c(Cl)c3)c2cc1OCCCN1CCN(CCCO[Si](c2ccccc2)(c2ccccc2)C(C)(C)C)CC1 | 0% | 0% | > 10000 nM | –
COc1cc2ncnc(Nc3ccc(F)c(Cl)c3)c2cc1OCCn1cc(CCCC(=O)NCC2CC3C=CC2C3)nn1 (configuration not stated) | – | – | – | half-life at 1 µM [12]: 9.48 min; CLint scaled at 1 µM [13]: 132 mL/min/kg; half-life at 1 µM [14]: 8.94 min; CLint scaled at 1 µM [15]: 614 mL/min/kg
COc1cc(OCc2cccc(-c3ccccc3)c2C)cc(OC)c1CNCc1cn(CCO[Si](c2ccccc2)(c2ccccc2)C(C)(C)C)nn1 | – | – | – | Activity (Kasumi 1 [16]): inactive; DC50 [17]: 510 nM; Activity (Kasumi 1 [18]): Active; Activity (Kasumi 1 [19]): inactive; Activity (Kasumi 1 [20]): Time-dependent-effect; Activity (Kasumi 1 [21]): Active; Activity (Kasumi 1 [22]): Active; Activity (Kasumi 1 [23]): Active
COc1cc2ncnc(Nc3ccc(F)c(Cl)c3)c2cc1OCCn1cc(CCCNC(=O)CO[C@@H]2C[C@H](C)CC[C@H]2C(C)C)nn1 | – | – | – | half-life at 1 µM [12]: 4.22 min; CLint scaled at 1 µM [13]: 295 mL/min/kg; half-life at 1 µM [14]: 7.4 min; CLint scaled at 1 µM [15]: 741 mL/min/kg
COc1cc2ncnc(Nc3ccc(F)c(Cl)c3)c2cc1OCCCN1CCOCC1 [GEFITINIB] | – | – | – | Activity (HCC827 [24]): Dose-dependent-effect; Activity (PC-9 [25]): Dose-dependent-effect; IC50 (PC-9 [26]): 13 nM
COc1cc2ncnc(Nc3ccc(F)c(Cl)c3)c2cc1OCCCN1CCN(CCn2cc(CCO[Si](c3ccccc3)(c3ccccc3)C(C)(C)C)nn2)CC1 | 58% | 0% | 990 nM | –
COc1cc2ncnc(Nc3ccc(F)c(Cl)c3)c2cc1OCCOCCOCCO[Si](c1ccccc1)(c1ccccc1)C(C)(C)C | 20.1% | 0% | > 10000 nM | –
O=C(O)Cc1ccccc1Nc1c(Cl)cccc1Cl [DICLOFENAC] | – | – | – | half-life at 1 µM [12]: 6.96 min; CLint scaled at 1 µM [13]: 179 mL/min/kg; half-life at 1 µM [14]: 50.2 min; CLint scaled at 1 µM [15]: 109 mL/min/kg
COc1cc2ncnc(Nc3ccc(F)c(Cl)c3)c2cc1OCCCN1CCN(CCn2cc(CCCCO[Si](c3ccccc3)(c3ccccc3)C(C)(C)C)nn2)CC1 | 0% | 0% | 3040 nM | –
COc1cc2ncnc(Nc3ccc(F)c(Cl)c3)c2cc1OCCCCCCCCO[Si](c1ccccc1)(c1ccccc1)C(C)(C)C | 0% | 0% | > 10000 nM | –
COc1cc2ncnc(Nc3ccc(F)c(Cl)c3)c2cc1OCCOCCO[Si](c1ccccc1)(c1ccccc1)C(C)(C)C | 0% | 0% | > 10000 nM | –
COc1cc2ncnc(Nc3ccc(F)c(Cl)c3)c2cc1OCCn1cc(CCCNC(=O)CC23CC4CC(CC(C4)C2)C3)nn1 | – | – | – | half-life at 1 µM [12]: 1.81 min; CLint scaled at 1 µM [13]: 690 mL/min/kg; half-life at 1 µM [14]: 1.05 min; CLint scaled at 1 µM [15]: 5230 mL/min/kg

Further lines, with some results ahead:

Activity [2] | Activity [3] | SMILES | IC50 (HCC827 [1]) | also measured
55.3% | 52.3% | COc1cc2ncnc(Nc3ccc(F)c(Cl)c3)c2cc1OCCn1cc(CCCO[Si](C)(C)C2CCCCC2)nn1 | 150 nM | –
18.4% | 0% | COc1cc2ncnc(Nc3ccc(F)c(Cl)c3)c2cc1OCCCN1CCN(CCn2cc(CCCCO[Si](C)(C)C3CCCCC3)nn2)CC1 | > 10000 nM | –
22.4% | 19.7% | COc1cc2ncnc(Nc3ccc(F)c(Cl)c3)c2cc1OCCn1cc(CCCO[Si](C)(C)C(C)(C)C)nn1 | 5620 nM | –
13.7% | 0% | COc1cc2ncnc(Nc3ccc(F)c(Cl)c3)c2cc1OCCCN1CCN(CCn2cc(CCCO[Si](C)(C)C3CCCCC3)nn2)CC1 | > 10000 nM | –
47% | 12.7% | COc1cc2ncnc(Nc3ccc(F)c(Cl)c3)c2cc1OCCn1cc(CCO[Si](C)(C)C2CCCCC2)nn1 | 450 nM | –
18.2% | 4.2% | COc1cc2ncnc(Nc3ccc(F)c(Cl)c3)c2cc1OCCn1cc(CCCO[Si](C(C)C)(C(C)C)C(C)C)nn1 | 7460 nM | –
58.4% | 28% | COc1cc2ncnc(Nc3ccc(F)c(Cl)c3)c2cc1OCCn1cc(CCCCO[Si](c2ccccc2)(c2ccccc2)C(C)(C)C)nn1 | 110 nM | –
72.1% | 46.4% | COc1cc2ncnc(Nc3ccc(F)c(Cl)c3)c2cc1OCCn1cc(CCO[Si](c2ccccc2)(c2ccccc2)C(C)(C)C)nn1 | 140 nM | –
79.1% | 38.2% | CC[Si](CC)(CC)OCCCc1cn(CCOc2cc3c(Nc4ccc(F)c(Cl)c4)ncnc3cc2OC)nn1 | 330 nM | –
10.8% | 0% | COc1cc2ncnc(Nc3ccc(F)c(Cl)c3)c2cc1OCCCN1CCN(CCn2cc(CCCO[Si](c3ccccc3)(c3ccccc3)C(C)(C)C)nn2)CC1 | 1580 nM | –
53.2% | 46.1% | COc1cc2ncnc(Nc3ccc(F)c(Cl)c3)c2cc1OCCn1cc(CCCCO[Si](C)(C)C2CCCCC2)nn1 | 700 nM | –
